Consider 13 compounds from patent publication US4816459A, “Tetrazolyl-substituted pyrido[1,2-a]pyrimidines and use as SRS-A antagonists” (Tokyo Tanabe Co. Ltd., priority 1985, dated 1989).

Series [1] concerns SRS-A. The conditions noted are these: Japanese Journal of Allergology 1984; cited from earlier work.
For series [2], the system named is leukotriene D4. Nature of the series: Antagonistic effect on leukotriene D4 in excised guinea pig terminal ileum (in vitro, inhibition of contraction). Type of series: cell-based, guinea pig (male, Hartley strain). Particulars: Cavia porcellus, leukotriene D4 0.3 ng/ml, 50% inhibition of contraction. How it is done:
Specifically, the terminal ileum was suspended, under aerated conditions, in 10 ml of Tyrode's solution containing 5×10^-7 M atropine and 1×10^-6 M mepyramine. Then, a test compound and leukotriene D4 (manufactured by Wako Junyaku Co., Ltd.) were successively added thereto with an interval of 30 seconds.
Specifically, at varying concentrations of each test compound, the percent inhibition of contraction was calculated from the measured degree of contraction of the ileum according to the following equation: [formula] On the basis of the data thus obtained, a dose-response curve was prepared and used to determine the IC50 value of the test compound.

Series [3] deals with SRS-A as represented by leukotriene D4. Nature of the series: Confirmatory experiment: antagonistic effect on SRS-A as represented by leukotriene D4. The conditions noted are these: confirmatory experiment by the inventors.
In series [4] the test system is leukotriene D4-induced airway constriction reaction. Nature of the series: Inhibition of leukotriene D4-induced Type I allergic reaction (airway constriction), Konzett-Rossler procedure, intravenous injection. Format: in vivo, guinea pig (male, Hartley strain). The conditions noted are these: Cavia porcellus, 2 min, leukotriene D4 0.5 μg/kg i.v. 2 minutes later, 50% inhibition of airway constriction, read-out: Inhibitory effect on Type I allergic reaction ID50 (intravenous). How it is done: (§1) Using male guinea pigs of the Hartley strain, weighing about 400 g, in groups of six, the inhibitory effect of the present compounds [I] and physiologically acceptable salts thereof on a Type I allergic reaction induced by leukotriene D4 was tested in two dosage forms (i.e., by intravenous injection and by oral administration) according to the Konzett-Rossler procedure [Naunyn-Schmiederbergs Archiv fur Experimentelle Pathologie und Pharmakologie, Vol. 195, p. 71, 1940]. Specifically, each guinea pig was anesthetized by intraperitoneal administration of 1.5 g/kg of urethane and an incision was made in the neck to expose the trachea. To the exposed trachea was connected a respirator (with a ventilation volume of 5-7 ml, a respiration rate of 70 per minute, and a pulmonary load pressure of 10 cmH2 O; manufactured by Ugo Basile Biological Research Apparatus Co.) by way of a cannula. The volume of air overflowing through the branch of the cannula was measured by means of a Model 7020 Bronchospasm Transducer (manufactured by Ugo Basile Biological Research Apparatus Co.) and recorded with a Model RM-6000 Polygraph (manufactured by Nippon Koden Co., Ltd.).
Intravenous injection tests were carried out as follows: Each guinea pig was treated by intravenous injection of 1 mg/kg of gallamine triethiodide. Then, 20.0 to 6000.0 μg/kg of a test compound and 0.5 μg/kg of leukotriene D4 were successively administered thereto through the cervical vein with an interval of 2 minutes. The volume of air overflowing as a result of the induced airway constriction reaction was measured. The test compound was used in the form of a solution in physiological saline containing sodium hydrogen carbonate or potassium carbonate.
(§2) Both in the intravenous injection tests and in the oral administration tests, leukotriene D4 was used in the form of a solution in physiological saline.
(§3) Both in the intravenous injection tests and in the oral administration tests, the pharmacological effect on the Type I allergic reaction was evaluated in terms of the dose of the test compound at which the airway constriction reaction induced by leukotriene D4 was inhibited by 50% (hereinafter referred to as ID50), provided that ID50 was expressed in μg/kg for the intravenous injection tests and in mg/kg for the oral administration tests. […] On the basis of the data thus obtained, a dose-response curve was prepared and used to determine the ID50 value of the test compound.
(§4) Among the test compounds indicated, the compounds of Examples 1, 6 and 9 used in the intravenous injection tests were prepared according to procedure a described in the respective examples, and those used in the oral administration tests were prepared according to procedure b.

Series [5] in a line: Acute toxicity (LD50) in mice. Particulars: mouse, in vivo, 5-weeks-old male ddY strain mice. How it is done:
(§5) The acute toxicity (LD50) of several typical examples of the present compounds [I] and physiologically acceptable salts thereof was tested on 5-weeks-old male ddY strain mice and male SD strain rats. For this purpose, the compounds of Examples 1, 6 and 9 were selected as typical examples. […] For rats, their LD50 values were not less than 4.0 g/kg when administered orally, and not less than 200 mg/kg when administered intravenously.

The subject of series [6] is leukotriene D4-induced airway constriction reaction. Put plainly: Inhibition of leukotriene D4-induced Type I allergic reaction (airway constriction), Konzett-Rossler procedure, oral administration. Format: in vivo, guinea pig (male, Hartley strain). The conditions noted are these: Cavia porcellus; oral 90 minutes before anesthesia; leukotriene D4 0.5 μg/kg i.v.; 50% inhibition of airway constriction; read-out: Inhibitory effect on Type I allergic reaction ID50 (oral). How it is done: as §1
Oral administration tests were carried out as follows: 1 to 30 mg/kg of a test compound was orally administered to each guinea pig 90 minutes before anesthesia with urethane. Then, the anesthetized guinea pig was treated by intravenous injection of 1 mg/kg of gallamine triethiodide and administration of 0.5 μg/kg of leukotriene D4 through the cervical vein. The volume of air overflowing as a result of the induced airway constriction reaction was measured.
as §2, §3, §4

The nature of series [7]: Acute toxicity (LD50) in rats. Particulars: rat, in vivo, male SD strain rats. How it is done:
as §5

Setting [8] is: intravenous, read-out: LD50, intravenous, mice.
Setting [9] is: oral, read-out: LD50, oral, mice.
The mark [10] stands for this setting: intravenous, read-out: LD50, intravenous, rats.
Setting [11] is: oral, read-out: LD50, oral, rats.

Molecules are shown by their SMILES. ≈ marks a conversion by molar mass, not a printed value. Where a name gives a salt, the structure may show the parent alone.

Regarding `Cc1cccn2c(=O)c(-c3nnn[nH]3)cnc12.[K]` [Compound TBX, 9-Methyl-3-(1H-tetrazol-5-yl)-4H-pyrido[1,2-a]pyrimidin-4-one potassium salt, reference compound], in series [1], the “type of SRS-A drug (in words)” value was “belongs to the SRS-A release suppression type”. Besides, the IC50 in series [2] is 200 µg/mL. The “antagonistic effect on SRS-A as represented by leukotriene D4 (in words)” value in series [3] is “no antagonistic effect”. In addition, the ED50 in series [4] is no less than 10 mg/kg.
On to `CCCc1c(OCc2cccn3c(=O)c(-c4nnn[nH]4)cnc23)ccc(C(C)=O)c1O` [Example 1, 9-[(4-acetyl-3-hydroxy-2-n-propylphenoxy)methyl]-3-(1H-tetrazol-5-yl)-4H-pyrido[1,2-a]-pyrimidin-4-one], for which the LD50 in series [5] (setting [8]) is no less than 100 mg/kg; in series [5] (setting [9]), no less than 4000 mg/kg; in series [7] (setting [10]), no less than 200 mg/kg; in series [7] (setting [11]) it was no less than 4000 mg/kg. The figures for the ED50 in series [6] and in series [4] were 9 mg/kg and 0.097 mg/kg, respectively. Also, the IC50 in series [2] was 0.03 µg/mL (≈ 0.0714 µM).
In series [2], `CCCc1c(OCc2ccc3ncc(-c4nnn[nH]4)c(=O)n3c2)ccc(C(C)=O)c1O` [Example 2, 7-[(4-acetyl-3-hydroxy-2-n-propylphenoxy)methyl]-3-(1H-tetrazol-5-yl)-4H-pyrido[1,2-a]pyrimidin-4-one] gave an IC50 of 0.1 µg/mL (≈ 0.238 µM). In addition, in series [4], the ED50 was found to be 0.16 mg/kg.
The like results for `CCCc1c(OCc2ccn3c(=O)c(-c4nnn[nH]4)cnc3c2)ccc(C(C)=O)c1O` [Example 3, 8-[(4-acetyl-3-hydroxy-2-n-propylphenoxy)methyl]-3-(1H-tetrazol-5-yl)-4H-pyrido[1,2-a]pyrimidin-4-one] were, in that order, 0.2 µg/mL (≈ 0.476 µM) and 0.17 mg/kg.
In turn, `CCCc1c(OCc2cc(Br)cn3c(=O)c(-c4nnn[nH]4)cnc23)ccc(C(C)=O)c1O` [Example 4, 9-[(4-acetyl-3-hydroxy-2-n-propylphenoxy)methyl]-7-bromo-3-(1H-tetrazol-5-yl)-4H-pyrido[1,2-a]pyrimidin-4-one] returned an IC50 in series [2] of 1 µg/mL (≈ 2 µM). For the same compound, in series [4], the ED50 is 4.9 mg/kg.
`CCCc1c(OCc2cc(C)cn3c(=O)c(-c4nnn[nH]4)cnc23)ccc(C(C)=O)c1O` [Example 5, 9-[(4-acetyl-3-hydroxy-2-n-propylphenoxy)methyl]-7-methyl-3-(1H-tetrazol-5-yl)-4H-pyrido[1,2-a]pyrimidin-4-one] returned an IC50 in series [2] of 0.8 µg/mL (≈ 1.84 µM).
For `CCCc1c(OCc2cccn3c(=O)c(Cc4nnn[nH]4)cnc23)ccc(C(C)=O)c1O` [Example 6, 9-[(4-acetyl-3-hydroxy-2-n-propylphenoxy)methyl]-3-[(1H-tetrazol-5-yl)methyl]-4H-pyrido[1,2-a]pyrimidin-4-one], the LD50 in series [5] (setting [8]) is no less than 100 mg/kg; in series [5] (setting [9]) it was no less than 4000 mg/kg; in series [7] (setting [10]), no less than 200 mg/kg; in series [7] (setting [11]), no less than 4000 mg/kg. For the same compound, the ED50 in series [6] was 10 mg/kg; in series [4], 0.11 mg/kg. Inhibition in series [2] was half-maximal at 0.01 µg/mL (≈ 0.023 µM) (IC50).
For `CCCc1c(OCc2ccc3ncc(Cc4nnn[nH]4)c(=O)n3c2)ccc(C(C)=O)c1O` [Example 7, 7-[(4-acetyl-3-hydroxy-2-n-propylphenoxy)methyl]-3-[(1H-tetrazol-5-yl)methyl]-4H-pyrido[1,2-a]pyrimidin-4-one], in series [2], inhibition was half-maximal at 0.1 µg/mL (≈ 0.23 µM) (IC50).
In turn, `CCCc1c(OCc2cc(C)cn3c(=O)c(Cc4nnn[nH]4)cnc23)ccc(C(C)=O)c1O` [Example 8, 9-[(4-acetyl-3-hydroxy-2-n-propylphenoxy)methyl]-7-methyl-3-[(1H-tetrazol-5-yl)methyl]-4H-pyrido[1,2-a]pyrimidin-4-one] gave an IC50 in series [2] of 0.7 µg/mL (≈ 1.56 µM). Moreover, the ED50 in series [4] worked out at 1.9 mg/kg.
Regarding `CCCc1c(OCc2cccn3c(=O)c(CCc4nnn[nH]4)cnc23)ccc(C(C)=O)c1O` [Example 9, 9-[(4-acetyl-3-hydroxy-2-n-propylphenoxy)methyl]-3-[2-(1H-tetrazol-5-yl)ethyl]-4H-pyrido[1,2-a]pyrimidin-4-one], the LD50 in series [5] (setting [8]) was no less than 100 mg/kg; in series [5] (setting [9]) it was no less than 4000 mg/kg; in series [7] (setting [10]), no less than 200 mg/kg; in series [7] (setting [11]), no less than 4000 mg/kg. Besides, the values for the ED50 in series [6] and in series [4] were 5 mg/kg and 0.038 mg/kg, respectively. This compound also yielded an IC50 in series [2] of 0.005 µg/mL (≈ 0.0111 µM).
Turning to `CCCc1c(OCc2ccn3c(=O)c(CCc4nnn[nH]4)cnc3c2)ccc(C(C)=O)c1O` [Example 10, 8-[(4-acetyl-3-hydroxy-2-n-propylphenoxy)methyl]-3-[2-(1H-tetrazol-5-yl)ethyl]-4H-pyrido[1,2-a]pyrimidin-4-one], half-maximal inhibition in series [2] (IC50) required 0.6 µg/mL (≈ 1.34 µM).
`CCCc1c(OCc2cc(Br)cn3c(=O)c(CCc4nnn[nH]4)cnc23)ccc(C(C)=O)c1O` [Example 11, 9-[(4-acetyl-3-hydroxy-2-n-propylphenoxy)methyl]-7-bromo-3-[2-(1H-tetrazol-5yl)ethyl]-4H-pyrido[1,2-a]pyrimidin-4-one]: the IC50 in series [2] was found to be 0.9 µg/mL (≈ 1.71 µM). Further, the ED50 in series [4] came out at 2.9 mg/kg.
`CCCc1c(OCc2cccn3c(=O)c(-c4nn[nH]n4)cnc23)ccc(C(C)=O)c1O` [Example 12, 9-[(4-acetyl-3-hydroxy-2-n-propylphenoxy)methyl]-3-(1H-tetrazol-5-yl)-4H-pyrido[1,2-a]pyrimidin-4-one potassium salt]: the ED50 in series [6] is 10 mg/kg; in series [4], 0.097 mg/kg. The same compound came in with an IC50 in series [2] of 0.03 µg/mL.

As usually defined, the IC50 is the concentration needed to halve the response being measured. A high value points to a need for much substance. The term LD50 denotes the dose at which mortality reaches 50%.
